Among the test systems are SK-MEL-5; LOX IMVI; MDA-MB-231; TK-10; HOP-62; U-251; UACC-62; UO-31; NCI-H460; SF-295; OVCAR-4; NCI-H23; HOP-92; CAKI-1; RXF 393; SK-MEL-2; SNB-19; SR; COLO 205; MCF7.
Holding throughout (assay): DTP human tumour cell line panel, 48 h

The structures appear in SMILES notation.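 In this assay, cells in 96-well plates receive the compound at five concentrations for 48 hours. Endpoints are linearly interpolated between the surrounding concentrations. GI50 marks 50% less growth.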 Active and inactive are the calls of the source. Rule as the data show it: active = GI50 up to about 1.1 µM and inactive = higher. Where only a bound is given, the exact number is not on record here.

As usually defined, the GI50 is the concentration that inhibits growth by half. Regarding `O/N=C1\CCc2nonc2\C1=N/Nc1ccccc1`, the GI50 with SK-MEL-5, with LOX IMVI, in the assay on MDA-MB-231, in the assay on TK-10, in the assay with HOP-62 and in the assay on U-251 was > 100 µM (inactive) each time. In addition, the GI50 was > 100 µM (inactive) in the assay on UACC-62; 30.5 µM (inactive) in the assay with UO-31; > 100 µM (inactive) with NCI-H460; > 100 µM (inactive) with SF-295; > 100 µM (inactive) in the assay with OVCAR-4; > 100 µM (inactive) in the assay on NCI-H23. Moreover, the GI50 with HOP-92, in the assay on CAKI-1, in the assay with RXF 393, in the assay on SK-MEL-2, with SNB-19 and with SR was > 100 µM (inactive) each time. Besides, the GI50 with COLO 205 was > 100 µM (inactive).

As for `N#Cc1c(-c2ccccc2)c(C#N)c(=O)n(NS(=O)(=O)c2ccccc2)c1O`, the GI50 with SK-MEL-5, in the assay on LOX IMVI, in the assay on MDA-MB-231, in the assay with TK-10, in the assay with HOP-62 and in the assay with U-251 was > 100 µM (inactive) in each case. Further, the GI50 in the assay with UACC-62, in the assay on MCF7, with NCI-H460, with SF-295, in the assay on OVCAR-4 and in the assay on HOP-92 was > 100 µM (inactive) each time. Moreover, the GI50 in the assay with CAKI-1, in the assay with RXF 393, in the assay on SK-MEL-2, with SNB-19 and in the assay with COLO 205 was > 100 µM (inactive) in each case.

With `COC(=O)/C(=N\N)C(C(=O)C(=O)Nc1cccc([N+](=O)[O-])c1)c1nc2ccc(C(=O)c3ccccc3)cc2nc1O` (stereo not given), the GI50 is 71 µM (inactive) in the assay with SK-MEL-5; > 100 µM (inactive) in the assay on LOX IMVI; > 100 µM (inactive) in the assay on MDA-MB-231; 39.9 µM (inactive) with TK-10; 73.1 µM (inactive) with HOP-62; > 100 µM (inactive) with U-251. Besides, the GI50 in the assay with UACC-62 was 96.2 µM (inactive); in the assay with MCF7, 54.2 µM (inactive); in the assay with UO-31, 37.5 µM (inactive); in the assay with NCI-H460 it was > 100 µM (inactive); in the assay on SF-295, 96.4 µM (inactive); with OVCAR-4, 40.2 µM (inactive). The GI50 with NCI-H23 was > 100 µM (inactive); with HOP-92 it was 35.7 µM (inactive); with CAKI-1, > 100 µM (inactive); with RXF 393, 16.9 µM (inactive); in the assay with SK-MEL-2, > 100 µM (inactive); in the assay with SNB-19, > 100 µM (inactive). For the same molecule, the GI50 in the assay on COLO 205 is > 100 µM (inactive).

Take `Cc1cc2[nH]c3c(C#N)c(-c4ccccc4)c(CN4CCOCC4)c(=O)n3c2cc1C`: the GI50 in the assay with LOX IMVI, with MDA-MB-231, in the assay on TK-10, in the assay with HOP-62, with U-251 and with MCF7 was > 100 µM (inactive) each time. Moreover, the GI50 with UO-31, with NCI-H460, with SF-295, in the assay with OVCAR-4, in the assay with NCI-H23 and in the assay on CAKI-1 was > 100 µM (inactive) throughout. The GI50 in the assay with RXF 393, with SK-MEL-2, in the assay with SNB-19 and in the assay with COLO 205 was > 100 µM (inactive) in each case.

Regarding `C=CCCCN(C(=O)c1ccccc1)c1ccc(C(=O)OC)o1`, the GI50 was 31 µM (inactive) with SK-MEL-5; > 100 µM (inactive) in the assay on LOX IMVI; > 100 µM (inactive) with MDA-MB-231; > 100 µM (inactive) in the assay with TK-10; > 100 µM (inactive) in the assay on HOP-62; > 100 µM (inactive) with UACC-62. For the same molecule, the GI50 in the assay with MCF7, with UO-31, in the assay on NCI-H460, in the assay on SF-295, in the assay with OVCAR-4 and in the assay on NCI-H23 was > 100 µM (inactive) each time. Further, the GI50 in the assay on HOP-92 was > 100 µM (inactive); with CAKI-1 it was > 100 µM (inactive); with RXF 393 it was > 100 µM (inactive); with SK-MEL-2, > 100 µM (inactive); in the assay on SNB-19 it was > 100 µM (inactive); with COLO 205, 81.1 µM (inactive).

Take `N#CC1=CNc2sccc2S1(=O)=O`: the GI50 in the assay on SK-MEL-5 was 76.4 µM (inactive); in the assay on LOX IMVI it was > 100 µM (inactive); with MDA-MB-231, > 100 µM (inactive); with TK-10, > 100 µM (inactive); with HOP-62, > 100 µM (inactive); in the assay with U-251, > 100 µM (inactive). The GI50 is > 100 µM (inactive) in the assay with UACC-62; > 100 µM (inactive) in the assay with MCF7; 92.9 µM (inactive) in the assay on UO-31; 40.7 µM (inactive) in the assay on NCI-H460; > 100 µM (inactive) with SF-295; > 100 µM (inactive) in the assay on OVCAR-4. The GI50 with NCI-H23, in the assay with HOP-92, with CAKI-1, with SK-MEL-2, in the assay with SNB-19 and in the assay on COLO 205 was > 100 µM (inactive) each time.

As for `N#C/C(C(=O)Nc1ccccc1)=C(/N)N1CCCC1`, the GI50 in the assay on SK-MEL-5, in the assay on LOX IMVI, in the assay on MDA-MB-231, in the assay on TK-10, in the assay with HOP-62 and with U-251 was > 100 µM (inactive) throughout. For the same molecule, the GI50 is > 100 µM (inactive) with UACC-62; 97.9 µM (inactive) in the assay with UO-31; > 100 µM (inactive) in the assay with NCI-H460; > 100 µM (inactive) in the assay on SF-295; > 100 µM (inactive) in the assay with OVCAR-4; > 100 µM (inactive) in the assay on NCI-H23. The GI50 in the assay on HOP-92, in the assay with CAKI-1, in the assay on RXF 393, in the assay on SK-MEL-2, in the assay with SNB-19 and with SR was > 100 µM (inactive) each time. Also, the GI50 with COLO 205 is > 100 µM (inactive).

In the case of `Cc1csc(-n2nc(C)cc2C)n1`, the GI50 in the assay with SK-MEL-5, in the assay with LOX IMVI, in the assay on MDA-MB-231, in the assay with TK-10, in the assay on HOP-62 and in the assay with U-251 was > 100 µM (inactive) throughout. Further, the GI50 in the assay with UACC-62, with MCF7, in the assay with UO-31, with NCI-H460, with SF-295 and in the assay on OVCAR-4 was > 100 µM (inactive) in each case. Moreover, the GI50 with NCI-H23, in the assay with CAKI-1, in the assay on RXF 393, in the assay on SK-MEL-2, in the assay on SNB-19 and with COLO 205 was > 100 µM (inactive) in each case.

With `Cc1cc(S(=O)(=O)Nc2nc3ccccc3c(=O)n2N)c(S)cc1Cl`, the GI50 in the assay on SK-MEL-5 is 29.6 µM (inactive); in the assay with LOX IMVI, 37.2 µM (inactive); in the assay on MDA-MB-231, 32.9 µM (inactive); in the assay with TK-10, 48.1 µM (inactive); in the assay on HOP-62 it was 14.8 µM (inactive); in the assay on U-251 it was 23.1 µM (inactive). Besides, the GI50 with UACC-62 is 20.7 µM (inactive); with MCF7 it was 71.1 µM (inactive); with NCI-H460 it was 33.4 µM (inactive); with SF-295, 28.3 µM (inactive); with OVCAR-4, 29.6 µM (inactive); in the assay with NCI-H23, 31.8 µM (inactive). The GI50 was 31.8 µM (inactive) with CAKI-1, 29.3 µM (inactive) in the assay on SK-MEL-2 and > 100 µM (inactive) in the assay with COLO 205.

Turning to `COC(=O)/C=c1/c2ccccc2n2c1c1ccccc1[n+]2C`, the GI50 in the assay with SK-MEL-5 is 2.81 µM (inactive); with LOX IMVI, 4.27 µM (inactive); in the assay with MDA-MB-231, 4.59 µM (inactive); with TK-10 it was 2.67 µM (inactive); with HOP-62, 3.05 µM (inactive); with U-251 it was 2.61 µM (inactive). The GI50 in the assay with UACC-62 was 6.73 µM (inactive); in the assay on MCF7, 3.34 µM (inactive); with UO-31, 7.13 µM (inactive); in the assay with NCI-H460, 3.37 µM (inactive); in the assay on SF-295, 2.69 µM (inactive); in the assay on OVCAR-4, 4.11 µM (inactive). The GI50 was 3.29 µM (inactive) with NCI-H23; 15.1 µM (inactive) with CAKI-1; 4.54 µM (inactive) with RXF 393; 4.08 µM (inactive) in the assay with SK-MEL-2; 4.88 µM (inactive) in the assay with SNB-19; 1.26 µM (inactive) with COLO 205.

For the molecule `CSc1nc(Cl)c2c(n1)Sc1nc3cc4c(cc3n1C2O)OCO4` (stereo not given), the GI50 in the assay with SK-MEL-5 was 0.526 µM (active); in the assay on LOX IMVI it was 0.206 µM (active); in the assay with MDA-MB-231 it was 0.391 µM (active); in the assay with TK-10 it was 1.65 µM (inactive); in the assay with HOP-62, 0.701 µM (active); in the assay with U-251 it was 0.791 µM (active). Besides, the GI50 in the assay on UACC-62 is 0.43 µM (active); in the assay with MCF7, 0.338 µM (active); in the assay with UO-31, 0.46 µM (active); in the assay with NCI-H460, 0.364 µM (active); in the assay on SF-295 it was 0.818 µM (active); in the assay on OVCAR-4 it was > 100 µM (inactive). Moreover, the 50% growth inhibitory concentration (GI50) in the assay on NCI-H23 was 0.891 µM (active); in the assay with CAKI-1, 2.95 µM (inactive); in the assay with RXF 393, 1.96 µM (inactive); in the assay with SK-MEL-2 it was 0.726 µM (active); in the assay on SNB-19, 1.57 µM (inactive); in the assay on COLO 205, 0.247 µM (active).

Source of the values: ChEMBL document CHEMBL1201862, “PubChem BioAssay data set” (2004).
